From patent US20260183295A1, “METHODS AND COMPOSITIONS FOR TREATING CANCER” (Onconova Therapeutics, Inc., priority 2022, published 2026)

How the values were obtained:
Assay type in all cases: cell-based
Hs578t cells = test: Cancer cell growth, 48 hours; details: 5 μM or 10 μM, compared to Comparator 1 (FIG. 1)
Method: At the end of 48 hours, growth of cells was measured using standard techniques.

CCN1 = biological target: T1, CCN1 (Homo sapiens, UniProt O00622); test: CETSA-MS, MDA-MB-231 intact cells; details: 2 μM and 20 μM
T1 construct: endogenous in cells; host or cells: MDA-MB-231
Method: (§1) TNBC MDA-MB-231 cells were grown at 37° C. in 5% CO2 and suspended in warm media and split into 4 equal volumes. […] Cells were incubated and then pelleted. Following pelleting, the cells were washed, resuspended, and heated in a thermal gradient. Following heating, the samples were flash frozen and lysed in lysis buffer, agitated by vortex, and sonicated prior to centrifugation. The supernatant was collected and denaturation buffer added. Cold acetone was then added to the cell samples, and protein collected by centrifugation. Pellets were then washed twice with cold acetone and the washed pellets prior to labeling.
(§2) The intact cell protein samples and lysate protein samples were then digested and labeled for mass spectrometry analysis according to the manufacturer's recommended protocols. Digested and labeled protein samples were analyzed by mass spectrometry proteomic analysis and the resulting protein targets were analyzed and plotted.

FBRS = test: CETSA-MS, MDA-MB-231 intact cells; details: 2 μM and 20 μM
Method: as §1, §2

DBNDD2 = biological target: T2, DBNDD2 (Homo sapiens, UniProt Q9BQY9); test: CETSA-MS, MDA-MB-231 intact cells; details: 2 μM and 20 μM
T2 construct: 148 targets unique to Compound 1 in MDA-MB-231 intact cells; endogenous in cells; host or cells: MDA-MB-231
Method: as §1, §2

CELF1 = biological target: T3, CELF1 (Homo sapiens, UniProt Q92879); test: CETSA-MS, MDA-MB-231 intact cells; details: 2 μM and 20 μM
T3 construct: endogenous in cells; host or cells: MDA-MB-231
Method: as §1, §2

SIK2 = biological target: T4, SIK2 (Homo sapiens, UniProt Q9H0K1); test: CETSA-MS, MDA-MB-231 intact cells; details: 2 μM and 20 μM
T4 construct: endogenous in cells; host or cells: MDA-MB-231
Method: as §1, §2

CSNK2A2 = biological target: T5, CSNK2A2 (Homo sapiens, UniProt P19784); test: CETSA-MS, MDA-MB-231 intact cells; details: 2 μM and 20 μM
T5 construct: 148 targets unique to Compound 1 in MDA-MB-231 intact cells; endogenous in cells; host or cells: MDA-MB-231
Method: as §1, §2

FOSB = biological target: T6, FOSB (Homo sapiens, UniProt P53539); test: CETSA-MS, MDA-MB-231 intact cells; details: 2 μM and 20 μM
T6 construct: endogenous in cells; host or cells: MDA-MB-231
Method: as §1, §2

CRAT = biological target: T7, CRAT (Homo sapiens, UniProt P43155); test: CETSA-MS, MDA-MB-231 intact cells; details: 2 μM and 20 μM
T7 construct: 148 targets unique to Compound 1 in MDA-MB-231 intact cells; endogenous in cells; host or cells: MDA-MB-231
Method: as §1, §2

RBM34 = biological target: T8, RBM34 (Homo sapiens, UniProt P42696); test: CETSA-MS, MDA-MB-231 intact cells; details: 2 μM and 20 μM
T8 construct: endogenous in cells; host or cells: MDA-MB-231
T8 sequence (P42696 whole entry): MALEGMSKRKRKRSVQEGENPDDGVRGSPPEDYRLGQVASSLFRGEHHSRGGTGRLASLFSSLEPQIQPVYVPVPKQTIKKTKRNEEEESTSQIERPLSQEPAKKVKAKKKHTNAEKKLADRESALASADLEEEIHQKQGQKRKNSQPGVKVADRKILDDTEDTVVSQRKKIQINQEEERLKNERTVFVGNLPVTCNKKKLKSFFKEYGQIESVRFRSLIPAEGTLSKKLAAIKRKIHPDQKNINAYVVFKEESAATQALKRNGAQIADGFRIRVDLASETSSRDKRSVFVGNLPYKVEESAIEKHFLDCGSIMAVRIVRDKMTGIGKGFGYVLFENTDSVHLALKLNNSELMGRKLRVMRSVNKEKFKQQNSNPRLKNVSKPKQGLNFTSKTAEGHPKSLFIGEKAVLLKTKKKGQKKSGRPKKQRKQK
Method: as §1, §2

ACAA1 = biological target: T9, ACAA1 (Homo sapiens, UniProt P09110); test: CETSA-MS, MDA-MB-231 intact cells; details: 2 μM and 20 μM
T9 construct: endogenous in cells; host or cells: MDA-MB-231
T9 sequence (P09110 27-424): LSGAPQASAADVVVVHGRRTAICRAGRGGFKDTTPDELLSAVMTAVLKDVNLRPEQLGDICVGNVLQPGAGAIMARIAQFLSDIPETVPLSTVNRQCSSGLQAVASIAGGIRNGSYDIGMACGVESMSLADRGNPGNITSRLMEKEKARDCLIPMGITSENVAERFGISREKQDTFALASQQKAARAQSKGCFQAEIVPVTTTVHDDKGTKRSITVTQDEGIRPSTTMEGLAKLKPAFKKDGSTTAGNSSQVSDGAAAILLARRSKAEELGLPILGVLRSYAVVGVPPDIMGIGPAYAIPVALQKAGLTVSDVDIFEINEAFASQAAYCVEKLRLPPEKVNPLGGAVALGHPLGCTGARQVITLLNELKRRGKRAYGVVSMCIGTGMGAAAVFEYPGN
Method: as §1, §2

FGFRL1 = biological target: T10, FGFRL1 (Homo sapiens, UniProt Q8N441); test: CETSA-MS, MDA-MB-231 intact cells; details: 2 μM and 20 μM
T10 construct: 148 targets unique to Compound 1 in MDA-MB-231 intact cells; endogenous in cells; host or cells: MDA-MB-231
Method: as §1, §2

ADAR = biological target: T11, ADAR (Homo sapiens, UniProt P55265); test: CETSA-MS, MDA-MB-231 intact cells; details: 2 μM and 20 μM
T11 construct: endogenous in cells; host or cells: MDA-MB-231
Method: as §1, §2

SMU1 = biological target: T12, SMU1 (Homo sapiens, UniProt Q2TAY7); test: CETSA-MS, MDA-MB-231 intact cells; details: 2 μM and 20 μM
T12 construct: endogenous in cells; host or cells: MDA-MB-231
Method: as §1, §2

RAE1 = biological target: T13, RAE1 (Homo sapiens, UniProt P78406); test: CETSA-MS, MDA-MB-231 intact cells; details: 2 μM and 20 μM
T13 construct: endogenous in cells; host or cells: MDA-MB-231
T13 sequence (P78406 whole entry): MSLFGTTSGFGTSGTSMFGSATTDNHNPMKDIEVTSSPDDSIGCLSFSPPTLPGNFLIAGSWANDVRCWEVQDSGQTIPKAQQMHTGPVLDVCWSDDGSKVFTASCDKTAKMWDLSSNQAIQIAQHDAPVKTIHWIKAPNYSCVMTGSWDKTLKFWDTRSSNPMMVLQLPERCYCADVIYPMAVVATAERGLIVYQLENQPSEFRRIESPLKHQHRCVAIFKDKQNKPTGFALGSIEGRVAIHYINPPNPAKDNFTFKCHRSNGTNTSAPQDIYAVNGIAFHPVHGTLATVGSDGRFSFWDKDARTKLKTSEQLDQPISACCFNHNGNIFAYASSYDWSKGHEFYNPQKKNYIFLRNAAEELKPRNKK
Method: as §1, §2

CERS2 = biological target: T14, CERS2 (Homo sapiens, UniProt Q96G23); test: CETSA-MS, MDA-MB-231 intact cells; details: 2 μM and 20 μM
T14 construct: endogenous in cells; host or cells: MDA-MB-231
Method: as §1, §2

FOS = biological target: T15, FOS (Homo sapiens, UniProt P01100); test: CETSA-MS, MDA-MB-231 intact cells; details: 2 μM and 20 μM
T15 construct: endogenous in cells; host or cells: MDA-MB-231
T15 sequence (P01100 whole entry): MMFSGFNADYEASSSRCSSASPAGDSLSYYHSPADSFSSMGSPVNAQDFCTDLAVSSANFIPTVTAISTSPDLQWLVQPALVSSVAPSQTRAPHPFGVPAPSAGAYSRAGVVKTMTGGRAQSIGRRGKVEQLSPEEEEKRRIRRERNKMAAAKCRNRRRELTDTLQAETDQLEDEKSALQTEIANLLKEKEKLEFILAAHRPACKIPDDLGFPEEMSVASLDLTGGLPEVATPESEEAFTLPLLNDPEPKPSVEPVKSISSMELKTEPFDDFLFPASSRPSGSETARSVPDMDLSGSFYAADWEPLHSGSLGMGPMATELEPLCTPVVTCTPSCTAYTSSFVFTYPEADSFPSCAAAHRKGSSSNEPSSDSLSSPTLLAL
Method: as §1, §2

TAF15 = biological target: T16, TAF15 (Homo sapiens, UniProt Q92804); test: CETSA-MS, MDA-MB-231 intact cells; details: 2 μM and 20 μM
T16 construct: endogenous in cells; host or cells: MDA-MB-231
Method: as §1, §2

SCAF1 = biological target: T17, SCAF1 (Homo sapiens, UniProt Q9H7N4); test: CETSA-MS, MDA-MB-231 intact cells; details: 2 μM and 20 μM
T17 construct: endogenous in cells; host or cells: MDA-MB-231
Method: as §1, §2

CDK17 = biological target: T18, CDK17 (Homo sapiens, UniProt Q00537); test: CETSA-MS, MDA-MB-231 intact cells; details: 2 μM and 20 μM
T18 construct: endogenous in cells; host or cells: MDA-MB-231
T18 sequence (Q00537 whole entry): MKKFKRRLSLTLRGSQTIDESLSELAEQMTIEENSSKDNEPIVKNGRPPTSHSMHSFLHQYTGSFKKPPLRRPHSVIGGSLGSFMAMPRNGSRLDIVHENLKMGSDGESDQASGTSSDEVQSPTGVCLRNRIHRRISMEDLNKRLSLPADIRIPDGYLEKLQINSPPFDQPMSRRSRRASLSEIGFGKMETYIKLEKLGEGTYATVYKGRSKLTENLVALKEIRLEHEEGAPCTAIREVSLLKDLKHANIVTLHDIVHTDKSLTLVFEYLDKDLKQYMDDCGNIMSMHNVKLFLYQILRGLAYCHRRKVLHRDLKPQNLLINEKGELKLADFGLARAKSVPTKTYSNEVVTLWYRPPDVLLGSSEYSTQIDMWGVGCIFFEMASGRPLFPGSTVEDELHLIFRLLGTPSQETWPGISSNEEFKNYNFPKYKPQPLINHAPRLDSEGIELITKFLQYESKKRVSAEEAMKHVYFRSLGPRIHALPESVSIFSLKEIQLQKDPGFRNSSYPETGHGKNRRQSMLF
Method: as §1, §2

GSKIP = biological target: T19, GSKIP (Homo sapiens, UniProt Q9P0R6); test: CETSA-MS, MDA-MB-231 intact cells; details: 2 μM and 20 μM
T19 construct: 148 targets unique to Compound 1 in MDA-MB-231 intact cells; endogenous in cells; host or cells: MDA-MB-231
T19 sequence (Q9P0R6 whole entry): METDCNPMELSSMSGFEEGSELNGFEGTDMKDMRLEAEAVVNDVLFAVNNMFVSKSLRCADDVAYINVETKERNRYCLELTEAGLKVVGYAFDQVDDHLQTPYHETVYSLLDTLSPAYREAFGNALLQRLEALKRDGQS
Method: as §1, §2

CDK12 = biological target: T20, CDK12 (Homo sapiens, UniProt Q9NYV4); test: CETSA-MS, MDA-MB-231 intact cells; details: 2 μM and 20 μM
T20 construct: endogenous in cells; host or cells: MDA-MB-231
Method: as §1, §2

ESYT1 = biological target: T21, ESYT1 (Homo sapiens, UniProt Q9BSJ8); test: CETSA-MS, MDA-MB-231 intact cells; details: 2 μM and 20 μM
T21 construct: 148 targets unique to Compound 1 in MDA-MB-231 intact cells; endogenous in cells; host or cells: MDA-MB-231
T21 sequence (Q9BSJ8 whole entry): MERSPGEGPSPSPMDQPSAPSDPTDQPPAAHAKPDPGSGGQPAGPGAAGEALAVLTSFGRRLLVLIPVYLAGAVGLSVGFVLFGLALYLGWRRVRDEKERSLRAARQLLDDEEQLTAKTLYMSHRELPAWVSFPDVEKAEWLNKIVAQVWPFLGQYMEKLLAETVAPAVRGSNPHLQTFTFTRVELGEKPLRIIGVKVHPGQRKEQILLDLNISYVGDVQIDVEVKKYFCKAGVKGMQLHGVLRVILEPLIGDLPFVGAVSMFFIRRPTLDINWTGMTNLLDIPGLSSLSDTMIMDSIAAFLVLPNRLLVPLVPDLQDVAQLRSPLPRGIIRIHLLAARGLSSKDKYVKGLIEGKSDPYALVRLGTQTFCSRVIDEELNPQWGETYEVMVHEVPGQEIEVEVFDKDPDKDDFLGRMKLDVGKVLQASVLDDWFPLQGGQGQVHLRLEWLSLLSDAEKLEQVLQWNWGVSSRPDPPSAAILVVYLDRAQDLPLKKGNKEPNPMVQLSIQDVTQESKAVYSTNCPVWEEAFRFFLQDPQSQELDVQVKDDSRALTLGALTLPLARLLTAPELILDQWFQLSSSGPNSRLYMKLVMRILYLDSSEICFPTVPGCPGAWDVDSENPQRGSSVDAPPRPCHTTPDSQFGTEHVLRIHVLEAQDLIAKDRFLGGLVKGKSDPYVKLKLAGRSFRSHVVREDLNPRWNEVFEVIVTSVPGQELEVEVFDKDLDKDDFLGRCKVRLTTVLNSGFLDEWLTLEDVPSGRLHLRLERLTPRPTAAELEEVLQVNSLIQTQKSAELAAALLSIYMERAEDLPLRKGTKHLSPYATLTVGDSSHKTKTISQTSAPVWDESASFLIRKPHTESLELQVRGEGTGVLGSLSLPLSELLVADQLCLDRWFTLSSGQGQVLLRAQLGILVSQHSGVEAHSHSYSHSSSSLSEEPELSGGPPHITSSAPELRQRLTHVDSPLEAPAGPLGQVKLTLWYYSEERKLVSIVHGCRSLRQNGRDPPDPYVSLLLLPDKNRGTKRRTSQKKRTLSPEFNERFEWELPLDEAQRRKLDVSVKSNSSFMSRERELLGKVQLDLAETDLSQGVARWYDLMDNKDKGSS
Method: as §1, §2

MAP3K20 = biological target: T22, MAP3K20 (Homo sapiens, UniProt Q9NYL2); test: CETSA-MS, MDA-MB-231 intact cells; details: 2 μM and 20 μM
T22 construct: endogenous in cells; host or cells: MDA-MB-231
T22 sequence (Q9NYL2 whole entry): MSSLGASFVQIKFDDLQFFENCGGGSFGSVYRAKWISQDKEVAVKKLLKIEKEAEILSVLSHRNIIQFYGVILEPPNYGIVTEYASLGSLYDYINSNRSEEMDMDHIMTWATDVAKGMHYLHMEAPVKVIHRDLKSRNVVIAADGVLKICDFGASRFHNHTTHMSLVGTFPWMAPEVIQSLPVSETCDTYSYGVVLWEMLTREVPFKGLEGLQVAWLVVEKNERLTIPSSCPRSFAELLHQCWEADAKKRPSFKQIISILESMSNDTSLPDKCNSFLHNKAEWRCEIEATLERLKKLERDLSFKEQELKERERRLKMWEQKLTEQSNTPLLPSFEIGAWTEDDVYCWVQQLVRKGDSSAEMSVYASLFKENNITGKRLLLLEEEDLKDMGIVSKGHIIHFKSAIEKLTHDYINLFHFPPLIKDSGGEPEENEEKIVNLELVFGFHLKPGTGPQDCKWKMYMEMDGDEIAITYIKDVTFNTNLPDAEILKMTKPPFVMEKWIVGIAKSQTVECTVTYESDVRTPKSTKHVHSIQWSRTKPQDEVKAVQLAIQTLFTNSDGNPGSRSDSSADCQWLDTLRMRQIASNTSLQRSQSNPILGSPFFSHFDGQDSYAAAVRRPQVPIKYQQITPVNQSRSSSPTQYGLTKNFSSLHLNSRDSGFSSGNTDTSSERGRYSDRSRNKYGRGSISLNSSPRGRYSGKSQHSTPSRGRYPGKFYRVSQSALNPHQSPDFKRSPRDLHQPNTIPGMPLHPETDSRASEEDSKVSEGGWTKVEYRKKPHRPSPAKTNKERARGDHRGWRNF
Method: as §1, §2

LYN = biological target: T23, LYN (Homo sapiens, UniProt P07948); test: CETSA-MS, MDA-MB-231 intact cells; details: 2 μM and 20 μM
T23 construct: endogenous in cells; host or cells: MDA-MB-231
T23 sequence (P07948 whole entry): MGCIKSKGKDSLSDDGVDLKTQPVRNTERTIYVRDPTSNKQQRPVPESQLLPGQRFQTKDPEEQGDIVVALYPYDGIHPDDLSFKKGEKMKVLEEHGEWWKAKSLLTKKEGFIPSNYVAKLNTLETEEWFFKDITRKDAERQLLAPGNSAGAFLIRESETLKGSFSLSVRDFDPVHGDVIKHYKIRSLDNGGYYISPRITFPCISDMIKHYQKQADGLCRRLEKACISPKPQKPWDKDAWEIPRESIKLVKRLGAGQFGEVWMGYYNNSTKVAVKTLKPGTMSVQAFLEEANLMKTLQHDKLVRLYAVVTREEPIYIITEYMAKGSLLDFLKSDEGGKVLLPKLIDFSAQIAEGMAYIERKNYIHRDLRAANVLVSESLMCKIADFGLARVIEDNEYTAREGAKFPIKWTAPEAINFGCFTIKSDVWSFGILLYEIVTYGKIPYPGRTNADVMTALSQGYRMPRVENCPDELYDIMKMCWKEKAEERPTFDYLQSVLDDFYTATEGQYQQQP
Method: as §1, §2

CBX5 = biological target: T24, CBX5 (Homo sapiens, UniProt P45973); test: CETSA-MS, MDA-MB-231 intact cells; details: 2 μM and 20 μM
T24 construct: endogenous in cells; host or cells: MDA-MB-231
Method: as §1, §2

MRPL55 = biological target: T25, MRPL55 (Homo sapiens, UniProt Q7Z7F7); test: CETSA-MS, MDA-MB-231 intact cells; details: 2 μM and 20 μM
T25 construct: endogenous in cells; host or cells: MDA-MB-231
Method: as §1, §2

DDX21 = biological target: T26, DDX21 (Homo sapiens, UniProt Q9NR30); test: CETSA-MS, MDA-MB-231 intact cells; details: 2 μM and 20 μM
T26 construct: 148 targets unique to Compound 1 in MDA-MB-231 intact cells; endogenous in cells; host or cells: MDA-MB-231
Method: as §1, §2

SGPP1 = biological target: T27, SGPP1 (Homo sapiens, UniProt Q9BX95); test: CETSA-MS, MDA-MB-231 intact cells; details: 2 μM and 20 μM
T27 construct: endogenous in cells; host or cells: MDA-MB-231
Method: as §1, §2

FOXK1 = biological target: T28, FOXK1 (Homo sapiens, UniProt P85037); test: CETSA-MS, MDA-MB-231 intact cells; details: 2 μM and 20 μM
T28 construct: endogenous in cells; host or cells: MDA-MB-231
Method: as §1, §2

PIP4K2A = biological target: T29, PIP4K2A (Homo sapiens, UniProt P48426); test: CETSA-MS, MDA-MB-231 intact cells; details: 2 μM and 20 μM
T29 construct: endogenous in cells; host or cells: MDA-MB-231
Method: as §1, §2

HNRNPC = biological target: T30, HNRNPC (Homo sapiens, UniProt P07910); test: CETSA-MS, MDA-MB-231 intact cells; details: 2 μM and 20 μM
T30 construct: 148 targets unique to Compound 1 in MDA-MB-231 intact cells; endogenous in cells; host or cells: MDA-MB-231
Method: as §1, §2

LOXL2 = biological target: T31, LOXL2 (Homo sapiens, UniProt Q9Y4K0); test: CETSA-MS, MDA-MB-231 intact cells; details: 2 μM and 20 μM
T31 construct: endogenous in cells; host or cells: MDA-MB-231
Method: as §1, §2

LMAN2 = biological target: T32, LMAN2 (Homo sapiens, UniProt Q12907); test: CETSA-MS, MDA-MB-231 intact cells; details: 2 μM and 20 μM
T32 construct: endogenous in cells; host or cells: MDA-MB-231
Method: as §1, §2

DECR1 = biological target: T33, DECR1 (Homo sapiens, UniProt Q16698); test: CETSA-MS, MDA-MB-231 intact cells; details: 2 μM and 20 μM
T33 construct: endogenous in cells; host or cells: MDA-MB-231
T33 sequence (Q16698 35-335): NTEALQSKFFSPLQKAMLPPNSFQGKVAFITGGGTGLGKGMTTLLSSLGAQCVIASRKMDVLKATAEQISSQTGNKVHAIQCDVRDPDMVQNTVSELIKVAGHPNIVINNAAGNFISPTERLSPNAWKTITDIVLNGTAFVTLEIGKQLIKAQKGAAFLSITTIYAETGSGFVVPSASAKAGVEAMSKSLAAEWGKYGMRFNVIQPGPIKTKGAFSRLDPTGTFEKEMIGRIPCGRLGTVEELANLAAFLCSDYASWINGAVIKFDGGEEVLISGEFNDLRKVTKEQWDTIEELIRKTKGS
Method: as §1, §2

LAMA5 = biological target: T34, LAMA5 (Homo sapiens, UniProt O15230); test: CETSA-MS, MDA-MB-231 intact cells; details: 2 μM and 20 μM
T34 construct: endogenous in cells; host or cells: MDA-MB-231
Method: as §1, §2

Compound: CN1CCN(c2ccc(Nc3ncc4cc(C#N)c(=O)n(C5CCCC5)c4n3)cc2)CC1 [Compound 1, 8-cyclopentyl-2-((4-(4-methylpiperazin-1-yl)phenyl)amino)-7-oxo-7,8-dihydropyrido[2,3-d]pyrimidine-6-carbonitrile]
- growth of cells (Hs578t cells): significantly inhibited
- Group (CETSA-MS thermal shift) (CCN1): Stabilization
- Group (CETSA-MS thermal shift) (FBRS): Stabilization
- Group (CETSA-MS thermal shift) (DBNDD2): Stabilization
- Group (CETSA-MS thermal shift) (CELF1): Stabilization
- Group (CETSA-MS thermal shift) (SIK2): Stabilization
- Group (CETSA-MS thermal shift) (CSNK2A2): Stabilization
- Group (CETSA-MS thermal shift) (FOSB): Destabilization
- Group (CETSA-MS thermal shift) (CRAT): Stabilization
- Group (CETSA-MS thermal shift) (RBM34): Stabilization
- Group (CETSA-MS thermal shift) (ACAA1): Destabilization
- Group (CETSA-MS thermal shift) (FGFRL1): Stabilization
- Group (CETSA-MS thermal shift) (ADAR): Stabilization
- Group (CETSA-MS thermal shift) (SMU1): Stabilization
- Group (CETSA-MS thermal shift) (RAE1): Stabilization
- Group (CETSA-MS thermal shift) (CERS2): Stabilization
- Group (CETSA-MS thermal shift) (FOS): Destabilization
- Group (CETSA-MS thermal shift) (TAF15): Stabilization
- Group (CETSA-MS thermal shift) (SCAF1): Stabilization
- Group (CETSA-MS thermal shift) (CDK17): Stabilization
- Group (CETSA-MS thermal shift) (GSKIP): Stabilization
- Group (CETSA-MS thermal shift) (CDK12): Destabilization
- Group (CETSA-MS thermal shift) (ESYT1): Stabilization
- Group (CETSA-MS thermal shift) (MAP3K20): Destabilization
- Group (CETSA-MS thermal shift) (LYN): Destabilization
- Group (CETSA-MS thermal shift) (CBX5): Stabilization
- Group (CETSA-MS thermal shift) (MRPL55): Stabilization
- Group (CETSA-MS thermal shift) (DDX21): Stabilization
- Group (CETSA-MS thermal shift) (SGPP1): Stabilization
- Group (CETSA-MS thermal shift) (FOXK1): Destabilization
- Group (CETSA-MS thermal shift) (PIP4K2A): Stabilization
- Group (CETSA-MS thermal shift) (HNRNPC): Stabilization
- Group (CETSA-MS thermal shift) (LOXL2): Stabilization
- Group (CETSA-MS thermal shift) (LMAN2): Stabilization
- Group (CETSA-MS thermal shift) (DECR1): Destabilization
- Group (CETSA-MS thermal shift) (LAMA5): Stabilization
